From patent US20260070913A1, “7-AMINO-3,4-DIHYDROPYRIMIDOPYRIMIDIN-2-ONE DERIVATIVE HAVING INHIBITORY ACTIVITY FOR PROTEIN KINASES AND THERAPEUTIC PHARMACEUTICAL COMPOSITION COMPRISING SAME” (KOREA INSTITUTE OF SCIENCE AND TECHNOLOGY, priority 2020, published 2026)

Tests used:
GCK = molecular target: T1, GCK (Homo sapiens, UniProt Q12851); test: Inhibitory activity against GCK kinase; assay type: biochemical
T1 sequence (Q12851 1-820): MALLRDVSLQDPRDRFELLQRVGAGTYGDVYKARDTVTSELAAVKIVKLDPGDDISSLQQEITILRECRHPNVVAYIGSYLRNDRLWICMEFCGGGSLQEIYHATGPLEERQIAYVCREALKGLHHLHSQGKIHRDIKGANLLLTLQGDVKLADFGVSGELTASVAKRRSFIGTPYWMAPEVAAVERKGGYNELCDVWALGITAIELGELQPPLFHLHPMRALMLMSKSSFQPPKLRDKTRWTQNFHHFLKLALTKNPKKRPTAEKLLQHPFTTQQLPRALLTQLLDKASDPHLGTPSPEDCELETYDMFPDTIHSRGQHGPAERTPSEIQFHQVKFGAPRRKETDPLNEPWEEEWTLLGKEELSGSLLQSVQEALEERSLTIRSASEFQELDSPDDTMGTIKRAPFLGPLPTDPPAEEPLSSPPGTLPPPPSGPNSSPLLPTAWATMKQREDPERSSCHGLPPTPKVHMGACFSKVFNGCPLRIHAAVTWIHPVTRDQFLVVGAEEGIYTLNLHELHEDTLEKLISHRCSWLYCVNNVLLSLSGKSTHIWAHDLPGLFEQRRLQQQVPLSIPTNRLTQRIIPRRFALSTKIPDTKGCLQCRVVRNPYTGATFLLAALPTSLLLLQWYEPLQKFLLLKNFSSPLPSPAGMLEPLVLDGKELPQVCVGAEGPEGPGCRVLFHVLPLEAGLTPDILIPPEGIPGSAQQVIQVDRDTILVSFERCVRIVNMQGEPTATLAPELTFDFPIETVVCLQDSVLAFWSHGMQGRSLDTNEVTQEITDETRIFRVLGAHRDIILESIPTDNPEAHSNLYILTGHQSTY
Description: (§1) The inhibitory activities of the compounds of the present disclosure against two kinases, GCK and ACK1, were measured, and the IC50 values thereof were calculated.

Ba/F3 (N-Ras G12D) = test: Proliferation inhibitory activity, mt-NRAS (G12D) Ba/F3 cell line; assay type: cell-based; settings: Mus musculus, BaF3
Description: (§2) The inhibitory activities of the compounds of the present disclosure against the proliferation of the mt-NRAS (G12D) Ba/F3 and OCI-AML3 (mt-NRAS) cell lines were measured, and the […] values thereof were calculated.

ACK1 = ACK1 (Homo sapiens, UniProt Q07912); test: Inhibitory activity against ACK1 kinase; assay type: biochemical
Description: as §1

OCI-AML3 (N-Ras Q61L) = test: Proliferation inhibitory activity, OCI-AML3 cell line; assay type: cell-based; settings: Homo sapiens, OCI-AML-3
Description: as §2
Referring to the results in Table 2, it can be seen that the compound of the present disclosure has inhibitory activity against the proliferation of the human acute myeloid leukemia cell line (OCI-AML3) having the NRAS mutant gene, and the effect thereof is remarkable. Therefore, it can be seen that the compound of the present disclosure is particularly effective as a therapeutic agent for acute myeloid leukemia (AML).

ACK1, sequence (Q07912 whole entry): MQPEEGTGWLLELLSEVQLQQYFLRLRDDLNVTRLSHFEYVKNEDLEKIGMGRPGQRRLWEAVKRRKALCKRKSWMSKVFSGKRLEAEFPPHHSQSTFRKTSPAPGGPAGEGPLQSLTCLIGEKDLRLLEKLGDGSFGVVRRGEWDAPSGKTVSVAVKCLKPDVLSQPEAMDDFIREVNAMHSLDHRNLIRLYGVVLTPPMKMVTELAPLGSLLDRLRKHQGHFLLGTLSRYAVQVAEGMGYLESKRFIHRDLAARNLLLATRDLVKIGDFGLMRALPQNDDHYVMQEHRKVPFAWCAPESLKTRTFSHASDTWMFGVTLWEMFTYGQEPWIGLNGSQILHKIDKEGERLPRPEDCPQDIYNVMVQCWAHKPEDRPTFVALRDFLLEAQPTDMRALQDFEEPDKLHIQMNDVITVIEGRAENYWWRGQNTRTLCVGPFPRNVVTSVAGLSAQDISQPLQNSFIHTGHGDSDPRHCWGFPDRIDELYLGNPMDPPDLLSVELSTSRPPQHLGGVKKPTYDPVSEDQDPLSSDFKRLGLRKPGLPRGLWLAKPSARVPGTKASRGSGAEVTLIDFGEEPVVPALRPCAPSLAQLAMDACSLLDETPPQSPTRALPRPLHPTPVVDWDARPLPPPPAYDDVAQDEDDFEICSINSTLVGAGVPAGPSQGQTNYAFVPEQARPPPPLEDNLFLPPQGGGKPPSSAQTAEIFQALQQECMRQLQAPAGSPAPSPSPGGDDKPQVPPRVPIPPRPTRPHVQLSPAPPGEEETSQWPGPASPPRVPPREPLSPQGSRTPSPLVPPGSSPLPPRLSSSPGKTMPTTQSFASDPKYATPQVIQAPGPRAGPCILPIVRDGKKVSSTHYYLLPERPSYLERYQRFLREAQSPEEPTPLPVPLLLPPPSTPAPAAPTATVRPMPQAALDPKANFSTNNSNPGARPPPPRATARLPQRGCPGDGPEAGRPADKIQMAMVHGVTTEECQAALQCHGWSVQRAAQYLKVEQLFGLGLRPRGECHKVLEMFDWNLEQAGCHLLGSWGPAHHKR

IC50 (GCK) [nM] | GI50 (Ba/F3 (N-Ras G12D)) [µM] | IC50 (ACK1) [nM] | GI50 (OCI-AML3 (N-Ras Q61L)) [µM] | SMILES
100 to 1000 | < 0.5 | < 100 | < 0.5 | CCN1CCC(c2ccc(Nc3ncc4c(n3)N(C)C(=O)N(c3cc(-c5ncc(-c6ccccc6OC)[nH]5)ccc3C)C4)cn2)CC1 [Compound No. 5, 7-((6-(1-ethylpiperidin-4-yl)pyridin-3-yl)amino)-3-(5-(5-(2-methoxyphenyl)-1H-imidazole-2-yl)-2-methylphenyl)-1-methyl-3,4-dihydropyrimido[4,5-d]pyrimidin-2(1H)-one]
 | > 5 |  | > 5 | CC(=O)N1CCC(n2cc(Nc3ncc4c(n3)N(C)C(=O)N(c3cc(-c5ncc(-c6ccccc6OC(F)(F)F)[nH]5)ccc3C)C4)cn2)CC1 [Compound No. 17, 7-((1-(1-acetylpiperidin-4-yl)-1H-pyrazol-4-yl)amino)-1-methyl-3-(2-methyl-5-(5-(2-(trifluoromethoxy)phenyl)-1H-imidazol-2-yl)phenyl)-3,4-dihydropyrimido[4,5-d]pyrimidin-2(1H)-one]
> 10000 | < 0.5 | 100 to 1000 | 0.5 to 3 | Cc1ccc(Nc2ncc3c(n2)N(C)C(=O)N(c2cc(-c4ncc(-c5ccccc5OC(F)(F)F)[nH]4)ccc2C)C3)cn1 [Compound No. 9, 1-methyl-3-(2-methyl-5-(5-(2-(trifluoromethoxy)phenyl)-1H-imidazol-2-yl)phenyl)-7-((6-methylpyridin-3-yl)amino)-3,4-dihydropyrimido[4,5-d]pyrimidin-2(1H)-one]
100 to 1000 | < 0.5 | < 100 | < 0.5 | CCN1CCC(n2cc(Nc3ncc4c(n3)N(C)C(=O)N(c3cc(-c5ncc(-c6ccccc6OC)[nH]5)ccc3C)C4)cn2)CC1 [Compound No. 4, 7-((1-(1-ethylpiperidin-4-yl)-1H-pyrazol-4-yl)amino)-3-(5-(5-(2-methoxyphenyl)-1H-imidazol-2-yl)-2-methylphenyl)-1-methyl-3,4-dihydropyrimido[4,5-d]pyrimidin-2(1H)-one]
 | 0.5 to 3 |  | 0.5 to 3 | COc1ccccc1-c1cnc(-c2ccc(C)c(N3Cc4cnc(Nc5ccc(C)nc5C)nc4N(C)C3=O)c2)[nH]1 [Compound No. 2, 7-((2,6-dimethylpyridin-3-yl)amino)-3-(5-(5-(2-methoxyphenyl)-1H-imidazol-2-yl)-2-methylphenyl)-1-methyl-3,4-dihydropyrimido[4,5-d]pyrimidin-2(1H)-one]
100 to 1000 | < 0.5 | < 100 | < 0.5 | CCN1CCC(n2cc(Nc3ncc4c(n3)N(C)C(=O)N(c3cc(-c5ncc(-c6ccccc6OC(F)(F)F)[nH]5)ccc3C)C4)cn2)CC1 [Compound No. 10, 7-((1-(1-ethylpiperidin-4-yl)-1H-pyrazol-4-yl)amino)-1-methyl-3-(2-methyl-5-(5-(2-(trifluoromethoxy)phenyl)-1H-imidazol-2-yl)phenyl)-3,4-dihydropyrimido[4,5-d]pyrimidin-2(1H)-one]
> 10000 | 0.5 to 3 | 100 to 1000 | < 0.5 | Cc1ccc(Nc2ncc3c(n2)N(C)C(=O)N(c2cc(-c4ncc(-c5cccc(F)c5F)[nH]4)ccc2C)C3)cn1 [Compound No. 12]
1000 to 10000 | 0.5 to 3 | < 100 | > 5 | Cc1ccc(-c2ncc(-c3ccccc3OC(F)(F)F)[nH]2)cc1N1Cc2cnc(Nc3ccc(N4CCOCC4)cc3)nc2N(C)C1=O [Compound No. 18, 1-methyl-3-(2-methyl-5-(5-(2-(trifluoromethoxy)phenyl)-1H-imidazol-2-yl)phenyl)-7-((4-morpholinophenyl)amino)-3,4-dihydropyrimido[4,5-d]pyrimidin-2(1H)-one]
 | > 5 |  | > 5 | CCN1CCN(c2ccc(Nc3ncc4c(n3)N(C)C(=O)N(c3cc(-c5ncc(-c6ccccc6OC(F)(F)F)[nH]5)ccc3C)C4)cn2)CC1 [Compound No. 16, 7-((6-(4-ethylpiperazin-1-yl)pyridin-3-yl)amino)-1-methyl-3-(2-methyl-5-(5-(2-(trifluoromethoxy)phenyl)-1H-imidazol-2-yl)phenyl)-3,4-dihydropyrimido[4,5-d]pyrimidin-2(1H)-one]
100 to 1000 | < 0.5 | < 100 | < 0.5 | COc1ccccc1-c1cnc(-c2ccc(C)c(N3Cc4cnc(Nc5cnn(C6CCN(C(C)=O)CC6)c5)nc4N(C)C3=O)c2)[nH]1 [Compound No. 7, 7-((1-(1-acetylpiperidin-4-yl)-1H-pyrazol-4-yl)amino)-3-(5-(5-(2-methoxyphenyl)-1H-imidazol-2-yl)-2-methylphenyl)-1-methyl-3,4-dihydropyrimido[4,5-d]pyrimidin-2(1H)-one]
> 10000 | 0.5 to 3 | 1000 to 10000 | 0.5 to 3 | Cc1ccc(-c2ncc(-c3cccc(F)c3F)[nH]2)cc1N1Cc2cnc(NC3CC3)nc2N(C)C1=O [Compound No. 11, 7-(cyclopropylamine)-3-(5-(5-(2,3-difluorophenyl)-1H-imidazol-2-yl)-2-methylphenyl)-1-methyl-3,4-dihydropyrimido[4,5-d]pyrimidin-2(1H)-one]
> 10000 | 3 to 5 | 1000 to 10000 | < 0.5 | Cc1ccc(Nc2ncc3c(n2)N(C)C(=O)N(c2cc(-c4ncc(-c5cccc(C(F)(F)F)c5)[nH]4)ccc2C)C3)cn1 [Compound No. 13, 1-methyl-3-(2-methyl-5-(5-(3-(trifluoromethyl)phenyl)-1H-imidazol-2-yl)phenyl)-7-((6-methylpyridin-3-yl)amino)-3,4-dihydropyrimido[4,5-d]pyrimidin-2(1H)-one]
100 to 1000 | 0.5 to 3 | 100 to 1000 | 0.5 to 3 | CC(=O)N1CCN(c2ccc(Nc3ncc4c(n3)N(C)C(=O)N(c3cc(-c5ncc(-c6ccccc6OC(F)(F)F)[nH]5)ccc3C)C4)cn2)CC1 [Compound No. 14, 7-((6-(4-acetylpiperazin-1-yl)pyridin-3-yl)amino)-1-methyl-3-(2-methyl-5-(5-(2-(trifluoromethoxy)phenyl)-1H-imidazol-2-yl)phenyl)-3,4-dihydropyrimido[4,5-d]pyrimidin-2(1H)-one]
 | 0.5 to 3 |  | 3 to 5 | Cc1ccc(Nc2ncc3c(n2)N(C)C(=O)N(c2cc(-c4ncc(-c5ccccc5OC(F)(F)F)[nH]4)ccc2C)C3)c(C)n1 [Compound No. 8, 7-((2,6-dimethylpyridin-3-yl)amino)-1-methyl-3-(2-methyl-5-(5-(2-(trifluoromethoxy)phenyl)-1H-imidazole-2-yl)phenyl)-3,4-dihydropyrimido[4,5-d]pyrimidin-2(1H)-one]
1000 to 10000 | < 0.5 | < 100 | < 0.5 | COc1ccccc1-c1cnc(-c2ccc(C)c(N3Cc4cnc(Nc5ccc(N6CCN(C(C)=O)CC6)nc5)nc4N(C)C3=O)c2)[nH]1 [Compound No. 6, 7-((6-(4-acetylpiperazin-1-yl)pyridin-3-yl)amino)-3-(5-(5-(2-methoxyphenyl)-1H-imidazol-2-yl)-2-methylphenyl)-1-methyl-3,4-dihydropyrimido[4,5-d]pyrimidin-2(1H)-one]
 | 3 to 5 |  | > 5 | CCN1CCC(c2ccc(Nc3ncc4c(n3)N(C)C(=O)N(c3cc(-c5ncc(-c6ccccc6OC(F)(F)F)[nH]5)ccc3C)C4)cn2)CC1 [Compound No. 15, 7-((6-(1-ethylpiperidin-4-yl)pyridin-3-yl)amino)-1-methyl-3-(2-methyl-5-(5-(2-(trifluoromethoxy)phenyl)-1H-imidazol-2-yl)phenyl)-3,4-dihydropyrimido[4,5-d]pyrimidin-2(1H)-one]
100 to 1000 | < 0.5 | < 100 | < 0.5 | COc1ccccc1-c1cnc(-c2ccc(C)c(N3Cc4cnc(Nc5cnn(C)c5)nc4N(C)C3=O)c2)[nH]1 [Compound No. 1, 3-(5-(5-(2-methoxyphenyl)-1H-imidazol-2-yl)-2-methylphenyl)-1-methyl-7-((1-methyl-1H-pyrazol-4-yl)amino)-3,4-dihydropyrimido[4,5-d]pyrimidin-2(1H)-one]
